Data taken from US7138361B2, “Herbicidal heterocycles” (E. I. du Pont de Nemours and Company, priority 2000, dated 2006).

Experiments:
Type in all cases: in vivo
[1] = system: rice (Oryza saliva); experiment: Test C flooded paddy test; conditions: for Rice plant response rating: scale 0 to 100, 0 no effect, 100 complete control
Outline: (§1)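 Response on a 0-to-100 scale (no effect to complete control) was assessed by eye versus controls. Plants had reached 2 leaves when treated in flooded paddy conditions. The assessment took place after 12–14 days of greenhouse growth.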

[2] = system: barnyardgrass (Echinochloa crus-galli); experiment: Test C flooded paddy test; conditions: for Barnyardgrass plant response rating: scale 0 to 100, 0 no effect, 100 complete control
Outline: as §1

[3] = system: duck salad (Heteranthera limosa); experiment: Test C flooded paddy test; conditions: for Ducksalad plant response rating: scale 0 to 100, 0 no effect, 100 complete control
Outline: as §1

[4] = system: rice (Oryza saliva); experiment: Test B flooded paddy test; conditions: Rate 1000 g/ha, scale of 0 to 100 where 0 is no effect and 100 is complete control, visually evaluated after 13 to 15 days
Outline: (§2)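 Rice, smallflower flatsedge, duck salad and barnyardgrass grown to 2-leaf stage in flooded paddy and treated with test chemicals. Plants kept in greenhouse 13 to 15 days, then visually rated against controls. Scale 0 (no effect) to 100 (complete control).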

[5] = system: barnyardgrass (Echinochloa crus-galli); experiment: Test B flooded paddy test; conditions: Rate 1000 g/ha, scale of 0 to 100 where 0 is no effect and 100 is complete control, visually evaluated after 13 to 15 days
Outline: as §2

[6] = system: duck salad (Heteranthera limosa); experiment: Test B flooded paddy test; conditions: Rate 1000 g/ha, scale of 0 to 100 where 0 is no effect and 100 is complete control, visually evaluated after 13 to 15 days
Outline: as §2

[7] = system: smallflower flatsedge (Cyperus difformis); experiment: Test B flooded paddy test; conditions: Rate 1000 g/ha, scale of 0 to 100 where 0 is no effect and 100 is complete control, visually evaluated after 13 to 15 days
Outline: as §2

[8] = system: Sunflower; experiment: Test C preemergence; conditions: scale 0 to 100
[9] = system: corn (Zea mays); experiment: Test C postemergence
Outline: (§3)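 Each compound was dissolved in a non-phytotoxic solvent system containing a surfactant and sprayed either on freshly planted seeds (preemergence) or on young plants, 2 to 18 cm high (postemergence). Ratings after 12 to 14 greenhouse days ran from 0, no effect, to 100, complete control.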

[10] = system: morningglory (Ipomoea hederacea); experiment: Test C postemergence
Outline: as §3

[11] = system: chickweed (Stellaria media); experiment: Test C postemergence
Outline: as §3

[12] = system: pigweed (Amaranthus retroflexus); experiment: Test C postemergence
Outline: as §3

[13] = system: yellow nutsedge (Cyperus esculentus); experiment: Test C postemergence
Outline: as §3

[14] = system: bermudagrass (Cynodon dactylon); experiment: Test C postemergence
Outline: as §3

[15] = system: johnsongrass (Sorghum halepense); experiment: Test C postemergence
Outline: as §3

[16] = system: woolly cupgrass (Eriochloa villosa); experiment: Test C postemergence
Outline: as §3

[17] = system: Surinam grass (Brachiaria decumbens); experiment: Test C postemergence
Outline: as §3

[18] = system: giant foxtail (Setaria faberii); experiment: Test C postemergence
Outline: as §3

[19] = system: crabgrass (Digitaria sanguinalis); experiment: Test C postemergence
Outline: as §3

[20] = system: cocklebur (Xanthium strumarium); experiment: Test C postemergence
Outline: as §3

[21] = system: kochia (Kochia scoparia); experiment: Test C postemergence
Outline: as §3

[22] = flooded paddy test, Rate 62 g/ha, scale 0 to 100 (0 no effect, 100 complete control)
[23] = flooded paddy test, Rate 125 g/ha, scale 0 to 100 (0 no effect, 100 complete control)
[24] = Rate 125 g/ha, scale 0 to 100, 0 no effect, 100 complete control
[25] = Rate 250 g/ha, scale 0 to 100 (0 no effect, 100 complete control)
[26] = Rate 500 g/ha, scale 0 to 100 (0 no effect, 100 complete control)
[27] = Rate 62 g/ha, scale 0 to 100, 0 no effect, 100 complete control
[28] = flooded paddy test, Rate 16 g/ha, visually evaluated after 12 to 14 days, 0 = no effect, 100 = complete control
[29] = flooded paddy test, under head Rate 16 g/ha, (own rate not given), after 12 to 14 days
[30] = Flooded Paddy, Rate 500 g/ha, scale 0 to 100
[31] = Flooded Paddy, Rate 1000 g/ha, scale 0 to 100

CC(C)c1ccn(C2OCN(c3cccc(C(F)(F)F)c3)C2=O)n1 (stereo not drawn) [Compound 27]
Rice plant response rating ([1]; Flooded Paddy, Rate 250 g/ha): 40
Rice plant response rating ([1]; Flooded Paddy, Rate 500 g/ha): 70
Plant response rating, Rice [1, 22]: 0
Plant response rating, Rice [1, 23]: 40
Barnyardgrass plant response rating ([2]; Flooded Paddy, Rate 250 g/ha): 60
Barnyardgrass plant response rating ([2]; Flooded Paddy, Rate 500 g/ha): 70
Plant response rating, Barnyardgrass [2, 22]: 20
Plant response rating, Barnyardgrass [2, 23]: 60
Ducksalad plant response rating ([3]; Flooded Paddy, Rate 250 g/ha): 0
Ducksalad plant response rating ([3]; Flooded Paddy, Rate 500 g/ha): 90
Plant response rating, Ducksalad [3, 22]: 0
Plant response rating, Ducksalad [3, 23]: 0
Plant response rating, Rice [4]: 50
Plant response rating, Barnyardgrass [5]: 90
Plant response rating, Ducksalad [6]: 100
Plant response rating, Flatsedge [7]: 100
Plant response rating, Sunflower ([8]; Rate 31 g/ha): 0

O=C1C(n2ccc(C3CC3)n2)OCN1c1cccc(C(F)(F)F)c1 (stereo not drawn) [Compound 28]
Rice plant response rating ([1]; Flooded Paddy, Rate 250 g/ha): 20
Rice plant response rating ([1]; Flooded Paddy, Rate 500 g/ha): 20
Plant response rating, Rice [1, 22]: 0
Plant response rating, Rice [1, 23]: 20
Barnyardgrass plant response rating ([2]; Flooded Paddy, Rate 250 g/ha): 40
Barnyardgrass plant response rating ([2]; Flooded Paddy, Rate 500 g/ha): 70
Plant response rating, Barnyardgrass [2, 22]: 0
Plant response rating, Barnyardgrass [2, 23]: 0
Ducksalad plant response rating ([3]; Flooded Paddy, Rate 250 g/ha): 70
Ducksalad plant response rating ([3]; Flooded Paddy, Rate 500 g/ha): 100
Plant response rating, Ducksalad [3, 22]: 0
Plant response rating, Ducksalad [3, 23]: 0
Plant response rating, Rice [4]: 50
Plant response rating, Barnyardgrass [5]: 100
Plant response rating, Ducksalad [6]: 100
Plant response rating, Flatsedge [7]: 100
Plant response rating, Sunflower ([8]; Rate 31 g/ha): 0

CC(C)(C)c1ccn(C2SCN(c3cccc(OC(F)(F)F)c3)C2=O)n1 (stereo not drawn) [Compound 30]
Plant response rating, Corn [9, 24]: 20
Plant response rating, Corn [9, 25]: 30
Plant response rating, Corn [9, 26]: 40
Plant response rating, Morningglory [10, 24]: 0
Plant response rating, Morningglory [10, 25]: 40
Plant response rating, Morningglory [10, 26]: 40
Plant response rating, Chickweed [11, 27]: 50
Plant response rating, Chickweed [11, 24]: 60
Plant response rating, Chickweed [11, 25]: 70
Plant response rating, Chickweed [11, 26]: 90
Plant response rating, Pigweed [12, 24]: 80
Plant response rating, Pigweed [12, 25]: 90
Plant response rating, Pigweed [12, 26]: 100
Plant response rating, Nutsedge [13, 24]: 0
Plant response rating, Nutsedge [13, 25]: 0
Plant response rating, Nutsedge [13, 26]: 0
Plant response rating, Bermudagrass [14, 27]: 70
Plant response rating, Bermudagrass [14, 24]: 80
Plant response rating, Bermudagrass [14, 25]: 80
Plant response rating, Bermudagrass [14, 26]: 90
Plant response rating, Johnsongrass [15, 24]: 0
Plant response rating, Johnsongrass [15, 25]: 0
Plant response rating, Johnsongrass [15, 26]: 90
Plant response rating, Cupgrass, Woolly [16, 24]: 30
Plant response rating, Cupgrass, Woolly [16, 25]: 40
Plant response rating, Cupgrass, Woolly [16, 26]: 80
Plant response rating, Surinam grass [17, 27]: 0
Plant response rating, Surinam grass [17, 24]: 0
Plant response rating, Surinam grass [17, 25]: 0
Plant response rating, Surinam grass [17, 26]: 60
Plant response rating, Foxtail, Giant [18, 24]: 0
Plant response rating, Foxtail, Giant [18, 25]: 30
Plant response rating, Foxtail, Giant [18, 26]: 80
Plant response rating, Crabgrass [19, 24]: 30
Plant response rating, Crabgrass [19, 25]: 30
Plant response rating, Crabgrass [19, 26]: 90
Plant response rating, Cocklebur [20, 24]: 30
Plant response rating, Cocklebur [20, 25]: 30
Plant response rating, Cocklebur [20, 26]: 50
Plant response rating, Kochia [21, 24]: 70
Plant response rating, Kochia [21, 25]: 70
Plant response rating, Kochia [21, 26]: 90
Rice plant response rating ([1]; Flooded Paddy, Rate 250 g/ha): 80
Rice plant response rating ([1]; Flooded Paddy, Rate 500 g/ha): 80
Plant response rating, Rice [1, 22]: 0
Plant response rating, Rice [1, 23]: 20
Plant response rating (scale 0 to 100), Rice [1, 28]: 0
Plant response rating (scale 0 to 100), Rice [1, 29]: 0
Barnyardgrass plant response rating ([2]; Flooded Paddy, Rate 250 g/ha): 100
Barnyardgrass plant response rating ([2]; Flooded Paddy, Rate 500 g/ha): 100
Plant response rating, Barnyardgrass [2, 22]: 100
Plant response rating, Barnyardgrass [2, 23]: 100
Plant response rating (scale 0 to 100), Barnyardgrass [2, 28]: 80
Plant response rating (scale 0 to 100), Barnyardgrass [2, 29]: 60
Ducksalad plant response rating ([3]; Flooded Paddy, Rate 250 g/ha): 100
Ducksalad plant response rating ([3]; Flooded Paddy, Rate 500 g/ha): 100
Plant response rating, Ducksalad [3, 22]: 70
Plant response rating, Ducksalad [3, 23]: 100
Plant response rating (scale 0 to 100), Ducksalad [3, 28]: 50
Plant response rating (scale 0 to 100), Ducksalad [3, 29]: 0
Plant response rating, Rice [4]: 90
Plant response rating, Barnyardgrass [5]: 100
Plant response rating, Ducksalad [6]: 100
Plant response rating, Flatsedge [7]: 100

CC(C)(C)c1ccn(C2CCN(c3ccc(Cl)c(Cl)c3)C2=O)n1 (stereo not drawn) [Compound 34]
Rice plant response rating ([1]; Flooded Paddy, Rate 250 g/ha): 0
Rice plant response rating ([1]; Flooded Paddy, Rate 500 g/ha): 20
Plant response rating, Rice [1, 22]: 0
Plant response rating, Rice [1, 23]: 0
Barnyardgrass plant response rating ([2]; Flooded Paddy, Rate 250 g/ha): 80
Barnyardgrass plant response rating ([2]; Flooded Paddy, Rate 500 g/ha): 80
Plant response rating, Barnyardgrass [2, 22]: 0
Plant response rating, Barnyardgrass [2, 23]: 40
Ducksalad plant response rating ([3]; Flooded Paddy, Rate 250 g/ha): 70
Ducksalad plant response rating ([3]; Flooded Paddy, Rate 500 g/ha): 100
Plant response rating, Ducksalad [3, 22]: 20
Plant response rating, Ducksalad [3, 23]: 50
Plant response rating, Rice [4]: 30
Plant response rating, Barnyardgrass [5]: 100
Plant response rating, Ducksalad [6]: 100
Plant response rating, Flatsedge [7]: 100
Plant response rating, Sunflower ([8]; Rate 31 g/ha): 0

CC(C)(C)c1ccn(C2CCN(c3cccc(SC(F)(F)F)c3)C2=O)n1 (stereo not drawn) [Compound 93]
Rice plant response rating ([1]; Flooded Paddy, Rate 250 g/ha): 20
Rice plant response rating ([1]; Flooded Paddy, Rate 500 g/ha): 80
Plant response rating, Rice [1, 22]: 0
Barnyardgrass plant response rating ([2]; Flooded Paddy, Rate 250 g/ha): 60
Barnyardgrass plant response rating ([2]; Flooded Paddy, Rate 500 g/ha): 70
Plant response rating, Barnyardgrass [2, 22]: 0
Plant response rating, Barnyardgrass [2, 23]: 50
Ducksalad plant response rating ([3]; Flooded Paddy, Rate 250 g/ha): 100
Ducksalad plant response rating ([3]; Flooded Paddy, Rate 500 g/ha): 100
Plant response rating, Ducksalad [3, 22]: 0
Plant response rating, Ducksalad [3, 23]: 90
Plant response rating, Rice [4]: 50
Plant response rating, Barnyardgrass [5]: 100
Plant response rating, Ducksalad [6]: 100
Plant response rating, Flatsedge [7]: 100
Plant response rating, Sunflower ([8]; Rate 62 g/ha): 0

CC(C)(C)c1ccn(C2CCN(c3cccc(C(F)(F)F)c3)C2=O)n1 (stereo not drawn) [Example 3, 3-[3-(1,1-dimethylethyl)-1H-pyrazol-1-yl]-1-[3-(trifluoromethyl)phenyl]-2-pyrrolidinone]
Plant response rating, Rice [1, 30]: 60
Plant response rating, Rice [1, 31]: 90
Rice plant response rating ([1]; Flooded Paddy, Rate 250 g/ha): 50
Plant response rating, Rice [1, 22]: 0
Plant response rating, Rice [1, 23]: 0
Plant response rating, Barnyardgrass [2, 30]: 100
Plant response rating, Barnyardgrass [2, 31]: 100
Barnyardgrass plant response rating ([2]; Flooded Paddy, Rate 250 g/ha): 100
Plant response rating, Barnyardgrass [2, 22]: 20
Plant response rating, Barnyardgrass [2, 23]: 80
Plant response rating, Ducksalad [3, 30]: 90
Plant response rating, Ducksalad [3, 31]: 100
Ducksalad plant response rating ([3]; Flooded Paddy, Rate 250 g/ha): 80
Plant response rating, Ducksalad [3, 22]: 20
Plant response rating, Ducksalad [3, 23]: 80
Plant response rating, Rice [4]: 90
Plant response rating, Barnyardgrass [5]: 100
Plant response rating, Ducksalad [6]: 100
Plant response rating, Flatsedge [7]: 100
